Results from ChEMBL document CHEMBL1152592, “Design, synthesis and biological evaluations of novel 7-[3-(1-aminocycloalkyl)pyrrolidin-1-yl]-6-desfluoro-8-methoxyquinolones with potent antibacterial activity against multi-drug resistant Gram-positive bacteria” (Bioorg Med Chem, 2009).
In brackets after ≈: the same amount, converted by molar mass.

Experiments:
Enterococcus faecium = test: Antibacterial activity against vancomycin-resistant Enterococcus faecium after 18 hrs by twofold microbroth dilution method; type: functional
Enterococcus faecalis [1] = test: Antibacterial activity against vancomycin-resistant Enterococcus faecalis after 18 hrs by twofold microbroth dilution method; type: functional
Staphylococcus aureus [2] = test: Antibacterial activity against ciprofloxacin, methicillin-resistant Staphylococcus aureus after 18 hrs by twofold microbroth dilution method; type: functional
Streptococcus pneumoniae [3] = test: Antibacterial activity against penicillin-intermediate resistant Streptococcus pneumoniae after 18 hrs by twofold microbroth dilution method; type: functional
Mus musculus [4] = test: Toxicity in Slc:ddY mouse at 150 mg/kg, iv; type: organism-based; set-up: dose 150 mg/kg, route intravenous; settings: in vivo
Streptococcus mitis = test: Antibacterial activity against Streptococcus mitis IID685 after 18 hrs by twofold microbroth dilution method; type: functional; settings: IID685, 18 h
[5] = Aqueous […] of the compound; type: physicochemical; settings: aqueous (not further specified)
Staphylococcus aureus [6] = test: Antibacterial activity against Staphylococcus aureus FDA 209-P after 18 hrs by twofold microbroth dilution method; type: functional
Escherichia coli = test: Antibacterial activity against Escherichia coli NIHJ after 18 hrs by twofold microbroth dilution method; type: functional
Streptococcus pyogenes = test: Antibacterial activity against Streptococcus pyogenes G-36 after 18 hrs by twofold microbroth dilution method; type: functional; settings: G-36, 18 h
Mus musculus [7] = test: Toxicity in Slc:ddY mouse at 100 mg/kg, iv; type: organism-based; set-up: dose 100 mg/kg, route intravenous; settings: in vivo
Pseudomonas aeruginosa = test: Antibacterial activity against Pseudomonas aeruginosa PAO1 after 18 hrs by twofold microbroth dilution method; type: functional; settings: PAO1, 18 h
Enterococcus faecalis [8] = test: Antibacterial activity against Enterococcus faecalis ATCC 19433 after 18 hrs by twofold microbroth dilution method; type: functional; settings: ATCC19433, 18 h
Mus musculus [9] = test: Toxicity in Slc:ddY mouse at 50 mg/kg, iv; type: organism-based; set-up: dose 50 mg/kg, route intravenous; settings: in vivo
Klebsiella pneumoniae = test: Antibacterial activity against Klebsiella pneumoniae type 2 after 18 hrs by twofold microbroth dilution method; type: functional; settings: type 2, 18 h
[10] = system: Staphylococcus epidermidis; test: Antibacterial activity against Staphylococcus epidermidis 56500 after 18 hrs by twofold microbroth dilution method; type: functional; settings: Staphylococcus epidermidis, 56500, 18 h
Streptococcus pneumoniae [11] = test: Antibacterial activity against Streptococcus pneumoniae J-24 after 18 hrs by twofold microbroth dilution method; type: functional; settings: J-24, 18 h
Mus musculus [12] = test: Toxicity in Slc:ddY mouse assessed as micronucleated reticulocyte in blood at 100 mg/kg, iv after 48 hrs of treatment by fluorescence microscopy; type: organism-based; set-up: dose 100 mg/kg, route intravenous; settings: in vivo
[13] = Inhibition of Staphylococcus aureus DNA topoisomerase 4 Ser80Phe mutant
DNA gyrase = DNA gyrase (Staphylococcus aureus, UniProt P0A0K8+P20831); test: Inhibition of Staphylococcus aureus wild type DNA gyrase; type: protein-complex assay
Staphylococcus aureus [14] = test: Selectivity ratio of IC50 for Staphylococcus aureus DNA topoisomerase 4 Ser80Phe mutant to IC50 for Staphylococcus aureus wild type DNA topoisomerase 4
DNA gyrase subunit A = DNA gyrase subunit A (Staphylococcus aureus, UniProt P20831, S84L); test: Inhibition of Staphylococcus aureus DNA gyrase Ser84Leu mutant
[15] = Inhibition of Staphylococcus aureus wild type DNA topoisomerase 4
Staphylococcus aureus [16] = test: Selectivity ratio of IC50 for Staphylococcus aureus DNA gyrase Ser84Leu mutant to IC50 for Staphylococcus aureus wild type DNA gyrase

Row | SMILES | MIC (Streptococcus mitis) [µg/mL] | solubility [5] [µg/mL] | MIC (Staphylococcus aureus [6]) [µg/mL] | MIC (Escherichia coli) [µg/mL] | MIC (Streptococcus pyogenes) [µg/mL] | MIC (Pseudomonas aeruginosa) [µg/mL] | MIC (Enterococcus faecalis [8]) [µg/mL] | MIC (Klebsiella pneumoniae) [µg/mL] | MIC [10] [µg/mL] | MIC (Streptococcus pneumoniae [11]) [µg/mL] | MIC50 (Enterococcus faecium) [µg/mL] | MIC90 (Enterococcus faecium) [µg/mL] | MIC50 (Enterococcus faecalis [1]) [µg/mL] | MIC90 (Enterococcus faecalis [1]) [µg/mL] | MIC50 (Staphylococcus aureus [2]) [µg/mL] | MIC90 (Staphylococcus aureus [2]) [µg/mL] | MIC50 (Streptococcus pneumoniae [3]) [µg/mL] | MIC90 (Streptococcus pneumoniae [3]) [µg/mL] | Activity (Mus musculus [4]) | Activity (Mus musculus [7]) | other results
1 | NCC[C@H](O)C(=O)N[C@@H]1C[C@H](N)[C@@H](O[C@H]2O[C@H](CN)CC[C@H]2N)[C@H](O)[C@H]1O[C@H]1O[C@H](CO)[C@@H](O)[C@H](N)[C@H]1O [ARBEKACIN] | – | – | – | – | – | – | – | – | – | – | 16 (≈ 29 µM) | 32 (≈ 57.9 µM) | 2 (≈ 3.62 µM) | 2 (≈ 3.62 µM) | 8 (≈ 14.5 µM) | 32 (≈ 57.9 µM) | 32 (≈ 57.9 µM) | 64 (≈ 116 µM) | – | – | –
2 | COc1c(N2CC[C@@H]([C@H](C)N)C2)c(F)cc2c(=O)c(C(=O)O)cn(C3CC3)c12 | 0.025 (≈ 0.0642 µM) | 89 (≈ 229 µM) | – | 0.012 (≈ 0.0308 µM) | 0.012 (≈ 0.0308 µM) | – | 0.05 (≈ 0.128 µM) | 0.05 (≈ 0.128 µM) | 0.012 (≈ 0.0308 µM) | – | – | – | – | – | – | – | – | – | – | Toxic | Activity (Mus musculus [9]): Toxic
3 | CC(=O)NC[C@H]1CN(c2ccc(N3CCOCC3)c(F)c2)C(=O)O1 [LINEZOLID] | – | – | – | – | – | – | – | – | – | – | 2 (≈ 5.93 µM) | 2 (≈ 5.93 µM) | 2 (≈ 5.93 µM) | 2 (≈ 5.93 µM) | 1 (≈ 2.96 µM) | 1 (≈ 2.96 µM) | 1 (≈ 2.96 µM) | 2 (≈ 5.93 µM) | – | – | –
4 | CNC1([C@@H]2CCN(c3ccc4c(=O)c(C(=O)O)cn([C@@H]5C[C@@H]5F)c4c3OC)C2)CC1 | 0.003 (≈ 0.00722 µM) | 161 (≈ 388 µM) | ≤ 0.003 | 0.006 (≈ 0.0144 µM) | 0.012 (≈ 0.0289 µM) | 0.39 (≈ 0.939 µM) | 0.05 (≈ 0.12 µM) | 0.05 (≈ 0.12 µM) | 0.012 (≈ 0.0289 µM) | 0.006 (≈ 0.0144 µM) | – | – | – | – | – | – | – | – | – | Non-toxic | Activity (Mus musculus [12]): Non-toxic
5 | COc1c(N2CCNC(C)C2)c(F)cc2c(=O)c(C(=O)O)cn(C3CC3)c12 (configuration not stated) [GATIFLOXACIN] | 0.2 (≈ 0.533 µM) | – | 0.05 (≈ 0.133 µM) | 0.006 (≈ 0.016 µM) | 0.39 (≈ 1.04 µM) | 0.78 (≈ 2.08 µM) | 0.39 (≈ 1.04 µM) | 0.05 (≈ 0.133 µM) | 0.2 (≈ 0.533 µM) | 0.2 (≈ 0.533 µM) | 4 (≈ 10.7 µM) | 32 (≈ 85.2 µM) | 16 (≈ 42.6 µM) | 32 (≈ 85.2 µM) | 4 (≈ 10.7 µM) | 64 (≈ 170 µM) | 0.5 (≈ 1.33 µM) | 0.5 (≈ 1.33 µM) | – | – | IC50 [13]: 22.5 µg/mL (≈ 59.9 µM); IC50 (DNA gyrase): 8.58 µM; Ratio IC50 (Staphylococcus aureus [14]): 12.2; IC50 (DNA gyrase subunit A): 765 µM; IC50 [15]: 1.85 µg/mL (≈ 4.93 µM); Ratio IC50 (Staphylococcus aureus [16]): 89.1

More lines, main results first:

Row | MIC (Streptococcus mitis) [µg/mL] | solubility [5] [µg/mL] | MIC (Staphylococcus aureus [6]) [µg/mL] | MIC (Escherichia coli) [µg/mL] | MIC (Streptococcus pyogenes) [µg/mL] | MIC (Pseudomonas aeruginosa) [µg/mL] | MIC (Enterococcus faecalis [8]) [µg/mL] | MIC (Klebsiella pneumoniae) [µg/mL] | MIC [10] [µg/mL] | MIC (Streptococcus pneumoniae [11]) [µg/mL] | SMILES | MIC50 (Enterococcus faecium) [µg/mL] | MIC90 (Enterococcus faecium) [µg/mL] | MIC50 (Enterococcus faecalis [1]) [µg/mL] | MIC90 (Enterococcus faecalis [1]) [µg/mL] | MIC50 (Staphylococcus aureus [2]) [µg/mL] | MIC90 (Staphylococcus aureus [2]) [µg/mL] | MIC50 (Streptococcus pneumoniae [3]) [µg/mL] | MIC90 (Streptococcus pneumoniae [3]) [µg/mL] | Activity (Mus musculus [4]) | Activity (Mus musculus [7]) | other results
6 | 0.003 (≈ 0.00715 µM) | 221 (≈ 527 µM) | ≤ 0.003 | ≤ 0.003 | 0.003 (≈ 0.00715 µM) | 0.2 (≈ 0.477 µM) | 0.012 (≈ 0.0286 µM) | 0.012 (≈ 0.0286 µM) | ≤ 0.003 | ≤ 0.003 | COc1c(N2CC[C@@H](C3(N)CC3)C2)c(F)cc2c(=O)c(C(=O)O)cn([C@@H]3C[C@@H]3F)c12 | – | – | – | – | – | – | – | – | Toxic | Toxic | Activity (Mus musculus [9]): Toxic
7 | 0.003 (≈ 0.00692 µM) | 173 (≈ 399 µM) | ≤ 0.003 | ≤ 0.003 | 0.003 (≈ 0.00692 µM) | 0.2 (≈ 0.461 µM) | 0.025 (≈ 0.0577 µM) | 0.012 (≈ 0.0277 µM) | 0.006 (≈ 0.0138 µM) | ≤ 0.003 | CNC1([C@@H]2CCN(c3c(F)cc4c(=O)c(C(=O)O)cn([C@@H]5C[C@@H]5F)c4c3OC)C2)CC1 | – | – | – | – | – | – | – | – | Toxic | Toxic | Activity (Mus musculus [9]): Toxic
8 | 0.003 (≈ 0.00692 µM) | 180 (≈ 415 µM) | ≤ 0.003 | ≤ 0.003 | 0.003 (≈ 0.00692 µM) | 0.39 (≈ 0.9 µM) | 0.025 (≈ 0.0577 µM) | 0.025 (≈ 0.0577 µM) | ≤ 0.003 | ≤ 0.003 | COc1c(N2CC[C@@H](C3(N)CCC3)C2)c(F)cc2c(=O)c(C(=O)O)cn([C@@H]3C[C@@H]3F)c12 | – | – | – | – | – | – | – | – | Toxic | – | –
